The record followed here is paper PMC5976239 (Journal of medicinal chemistry, 2017).

Common to all, as to type: cell-based
Assay [1] deals with Candida albicans ATCC 10231 (A). Description: MIC determination by in vitro antifungal assay. As to conditions: ATCC10231, 48 h, read-out: MIC (MIC-0).
Assay [2] has as its system C. albicans ATCC 64124(R) (B). Description: MIC determination by in vitro antifungal assay. As to conditions: Candida albicans, ATCC64124, 48 h, read-out: MIC (MIC-0).
The test system of assay [3] is C. albicans ATCC MYA-2876(S) (C). The assay is described as follows: MIC determination by in vitro antifungal assay. As to conditions: Candida albicans, 48 h, read-out: MIC (MIC-0).
Assay [4] has as its system C. albicans ATCC 90819(R) (D). The assay is described as follows: MIC determination by in vitro antifungal assay. The following applies: Candida albicans, ATCC90819, 48 h, read-out: MIC (MIC-0).
In assay [5] the test system is C. albicans ATCC MYA-2310(S) (E). The assay is described as follows: MIC determination by in vitro antifungal assay. The following applies: Candida albicans, 48 h, read-out: MIC (MIC-0).
The test system of assay [6] is C. albicans ATCC MYA-1237(R) (F). The assay is described as follows: MIC determination by in vitro antifungal assay. As to conditions: Candida albicans, 48 h, read-out: MIC (MIC-0).
For assay [7], the system named is C. albicans ATCC MYA-1003(R) (G). The assay is described as follows: MIC determination by in vitro antifungal assay. The following applies: Candida albicans, 48 h, read-out: MIC (MIC-0).
For assay [8], the system named is Aspergillus flavus ATCC MYA-3631 (K). The assay is described as follows: MIC determination against filamentous fungi. The following applies: 48 h, read-out: MIC (MIC-0).
Assay [9] has as its system Aspergillus nidulans ATCC 38163 (L). Description: MIC determination against filamentous fungi. The following applies: ATCC38163, 48 h, read-out: MIC (MIC-0).
The subject of assay [10] is Aspergillus terreus ATCC MYA-3633 (M). The assay is described as follows: MIC determination against filamentous fungi. The following applies: 48 h, read-out: MIC (MIC-0).
Assay [11] concerns C. albicans, non-albicans Candida, and Aspergillus strains. Description: Antifungal activity over the panel of 13 fungal strains. As to conditions: for MIC: read-out: antifungal activity class based on MIC values; for antifungal activity (in words): overall, fungal strains tested (27 except strains K and L); for antifungal activity class based on MIC values: against all fungal strains tested (5 and 6 except strain K).

≈ marks a conversion by molar mass, not a printed value.

Take `CCCCCN1CCNCC1` [Compound 2, N-pentylpiperazine]: the MIC in assay [1], in assay [2], in [3], in [4], in assay [5] and in assay [6] was above 31.3 µg/mL each time. In addition, the MIC is above 31.3 µg/mL in assay [7]; above 31.3 µg/mL in [8]; above 31.3 µg/mL in [9]; above 31.3 µg/mL in assay [10]; at least 31.3 µg/mL in assay [11].
Take `CCCCCCCCCCCCCN1CCN(CC(O)(Cn2cncn2)c2ccc(F)cc2F)CC1` (centres unmarked) [Compound 23, 2-(2,4-Difluorophenyl)-1-(1H-1,2,4-triazol-1-yl)-3-(4-tridecylpiperazine)propan-2-ol]: the MIC in assay [1] stood at 1.95 µg/mL (≈ 3.86 µM); in [2] it was 7.8 µg/mL (≈ 15.4 µM); in assay [3], 1.95 µg/mL (≈ 3.86 µM); in assay [4], 1.95 µg/mL (≈ 3.86 µM); in [8], 0.975 µg/mL (≈ 1.93 µM); in assay [9] it was 0.975 µg/mL (≈ 1.93 µM). Besides, the MIC in assay [10] is 0.975 µg/mL (≈ 1.93 µM).
For the molecule `CN1CCNCC1` [Compound 1, N-methylpiperazine], the minimal inhibitory concentration (MIC) in assay [1], in assay [2], in assay [3], in assay [4], in assay [5] and in assay [6] was above 31.3 µg/mL throughout. Also, the MIC is above 31.3 µg/mL in assay [7]; above 31.3 µg/mL in [8]; above 31.3 µg/mL in [9]; above 31.3 µg/mL in assay [10]; at least 31.3 µg/mL in [11].
As to `CCCCCCCCCCCCCN1CCNCC1` [Compound 8, 1-Tridecyl Piperazine], the MIC in assay [1] came out at 0.975 µg/mL (≈ 3.63 µM); in [2], 0.975 µg/mL (≈ 3.63 µM); in assay [3] it was 1.95 µg/mL (≈ 7.26 µM); in assay [4] it was 0.975 µg/mL (≈ 3.63 µM); in assay [5], 1.95 µg/mL (≈ 7.26 µM); in assay [6], 1.95 µg/mL (≈ 7.26 µM). For the same molecule, the MIC in assay [7] is 1.95 µg/mL (≈ 7.26 µM); in assay [8] it was 1.95 µg/mL (≈ 7.26 µM); in assay [9], 0.975 µg/mL (≈ 3.63 µM); in assay [10], 1.95 µg/mL (≈ 7.26 µM); in [11], 0.015 to 1.95 µg/mL (≈ 0.0559 to 7.26 µM).
For the molecule `CC[C@H](C)C[C@H](C)CCCCCCCCC(=O)N[C@H]1C[C@@H](O)[C@@H](NCCN)NC(=O)[C@@H]2[C@@H](O)CCN2C(=O)[C@H]([C@H](O)CCN)NC(=O)[C@H]([C@H](O)[C@@H](O)c2ccc(O)cc2)NC(=O)[C@@H]2C[C@@H](O)CN2C(=O)[C@H]([C@@H](C)O)NC1=O` [CAS, caspofungin, reference compound], the MIC in assay [1] was determined as 0.975 µg/mL (≈ 0.892 µM); in [2] it was 0.24 µg/mL (≈ 0.22 µM); in [3], 0.06 µg/mL (≈ 0.0549 µM); in assay [4], 0.12 µg/mL (≈ 0.11 µM); in assay [5], 0.12 µg/mL (≈ 0.11 µM); in assay [6], 0.24 µg/mL (≈ 0.22 µM). The MIC is 0.48 µg/mL (≈ 0.439 µM) in [7], above 31.3 µg/mL in [8], above 31.3 µg/mL in assay [9] and above 31.3 µg/mL in assay [10].
With `OC(CN1CCOCC1)(Cn1cncn1)c1ccc(F)cc1F` (centres unmarked) [Compound 27, 2-(2,4-Difluorophenyl)-1-(1H-1,2,4-triazol-1-yl)-3-(mopholine)-propan-2-ol], the MIC in assay [1] was above 31.3 µg/mL; in assay [2], above 31.3 µg/mL; in assay [3], above 31.3 µg/mL; in assay [4] it was 3.9 to 31.3 µg/mL (≈ 12 to 96.5 µM); in assay [5] it was 7.8 to 31.3 µg/mL (≈ 24 to 96.5 µM); in assay [6] it was above 31.3 µg/mL. The MIC worked out at 31.3 µg/mL (≈ 96.5 µM) in assay [7], 1.95 µg/mL (≈ 6.01 µM) in [9] and 15.6 µg/mL (≈ 48.1 µM) in assay [10]. In assay [11], the “antifungal activity (in words)” value was “inactive”.
For `Fc1ccc(C2(Cn3cncn3)CO2)c(F)c1` (centres unmarked) [Compound 14, 1-[[2-(2,4-Difluorophenyl)-2-oxiranyl]methyl]-1H-1,2,4-triazole], the MIC in [1], in [2], in [3], in assay [4], in [5] and in assay [6] was above 31.3 µg/mL in each case. Also, the MIC in assay [7], in assay [8], in assay [9] and in assay [10] was above 31.3 µg/mL throughout. In addition, in assay [11], the “antifungal activity (in words)” value was “inactivity”.
Regarding `CCCCCCCCCN1CCNCC1` [Compound 4, 1-Nonyl Piperazine], the MIC in [1] is 31.3 µg/mL (≈ 147 µM); in assay [2] it was above 31.3 µg/mL; in assay [3] it was above 31.3 µg/mL; in [4], 31.3 µg/mL (≈ 147 µM); in assay [5], 31.3 µg/mL (≈ 147 µM); in assay [6], 31.3 µg/mL (≈ 147 µM). Also, the minimal inhibitory concentration (MIC) in [7] was above 31.3 µg/mL; in assay [8], 31.3 µg/mL (≈ 147 µM); in [9] it was above 31.3 µg/mL; in assay [10], above 31.3 µg/mL; in [11], at least 31.3 µg/mL.
`CCCCCCCCCCCN1CCNCC1` [Compound 6, 1-Undecyl Piperazine]: the MIC in assay [1] was found to be 7.8 µg/mL (≈ 32.4 µM); in assay [2], 7.8 µg/mL (≈ 32.4 µM); in assay [3] it was 15.6 µg/mL (≈ 64.9 µM); in assay [4] it was 7.8 µg/mL (≈ 32.4 µM); in assay [5], 7.8 µg/mL (≈ 32.4 µM); in assay [6], 7.8 µg/mL (≈ 32.4 µM). Moreover, the MIC in assay [7] was found to be 15.6 µg/mL (≈ 64.9 µM); in assay [8], 31.3 µg/mL (≈ 130 µM); in assay [9], 15.6 µg/mL (≈ 64.9 µM); in [10] it was 15.6 µg/mL (≈ 64.9 µM). Moreover, in assay [11], the “antifungal activity class based on MIC values” was “moderately active”.
For `CCCCCCCCCCN1CCNCC1` [Compound 5, 1-Decyl Piperazine], the MIC in [1], in assay [2], in assay [3], in [4], in assay [5] and in assay [6] was 15.6 µg/mL (≈ 68.9 µM) throughout. The MIC came to 15.6 µg/mL (≈ 68.9 µM) in assay [7], 31.3 µg/mL (≈ 138 µM) in [8], 15.6 µg/mL (≈ 68.9 µM) in assay [9] and 15.6 µg/mL (≈ 68.9 µM) in [10]. Besides, in [11], the “antifungal activity class based on MIC values” is recorded as “moderately active”.
With `CCCCCCCCCCCN1CCN(CC(O)(Cn2cncn2)c2ccc(F)cc2F)CC1` (centres unmarked) [Compound 21, 2-(2,4-Difluorophenyl)-1-(1H-1,2,4-triazol-1-yl)-3-(4-undecylpiperazine)propan-2-ol], the MIC in [1] came out at 1.95 µg/mL (≈ 4.08 µM); in assay [2] it was 15.6 µg/mL (≈ 32.7 µM); in assay [3] it was 7.8 µg/mL (≈ 16.3 µM); in assay [4] it was 15.6 µg/mL (≈ 32.7 µM); in [5] it was 15.6 µg/mL (≈ 32.7 µM); in [6], 15.6 µg/mL (≈ 32.7 µM). Further, the MIC worked out at 15.6 µg/mL (≈ 32.7 µM) in assay [7], 1.95 µg/mL (≈ 4.08 µM) in [8], 1.95 µg/mL (≈ 4.08 µM) in assay [9] and 1.95 µg/mL (≈ 4.08 µM) in assay [10].
`OC(CNCCN1CCOCC1)(Cn1cncn1)c1ccc(F)cc1F` (centres unmarked) [Compound 28, 2-(2,4-Difluorophenyl)-1-(1H-1,2,4-triazol-1-yl)-3-(4-(2-aminoethyl)morpholine)propan-2-ol]: the MIC in assay [1] is 31.3 µg/mL (≈ 85.2 µM); in [2] it was 31.3 µg/mL (≈ 85.2 µM); in assay [3] it was 31.3 µg/mL (≈ 85.2 µM); in [4], above 31.3 µg/mL; in assay [5], above 31.3 µg/mL; in [6], 31.3 µg/mL (≈ 85.2 µM). Besides, the MIC in [7], in [8], in assay [9] and in [10] was above 31.3 µg/mL in each case. The “antifungal activity (in words)” value in assay [11] is “inactive”.
In the case of `CCCCCN1CCN(CC(O)(Cn2cncn2)c2ccc(F)cc2F)CC1` (centres unmarked) [Compound 17, 2-(2,4-Difluorophenyl)-1-(1H-1,2,4-triazol-1-yl)-3-(4-pentylpiperazine)propan-2-ol], the MIC in assay [1] was above 31.3 µg/mL; in assay [2] it was above 31.3 µg/mL; in [3] it was above 31.3 µg/mL; in assay [4], 31.3 µg/mL (≈ 79.5 µM); in [5], above 31.3 µg/mL; in [6], above 31.3 µg/mL. Moreover, the MIC in [7], in [8], in assay [9] and in assay [10] was above 31.3 µg/mL each time. For the same molecule, the “antifungal activity (in words)” value in [11] was “basically inactive”.
With `CCCCCCCCN1CCNCC1` [Compound 3, 1-Octyl Piperazine], the MIC in assay [1], in assay [2], in assay [3], in assay [4], in assay [5] and in assay [6] was above 31.3 µg/mL throughout. Moreover, the MIC in assay [7], in assay [8], in assay [9] and in [10] was above 31.3 µg/mL each time.
Turning to `CCCCCCCCCN1CCN(CC(O)(Cn2cncn2)c2ccc(F)cc2F)CC1` (centres unmarked) [Compound 19, 2-(2,4-Difluorophenyl)-1-(1H-1,2,4-triazol-1-yl)-3-(4-nonylpiperazine)propan-2-ol], the MIC in assay [1] turned out to be 0.975 µg/mL (≈ 2.17 µM); in assay [2], 7.8 µg/mL (≈ 17.3 µM); in assay [3], 3.9 µg/mL (≈ 8.67 µM); in assay [4], 7.8 µg/mL (≈ 17.3 µM); in [5], 15.6 µg/mL (≈ 34.7 µM); in [6] it was 15.6 µg/mL (≈ 34.7 µM). For the same molecule, the MIC is 15.6 µg/mL (≈ 34.7 µM) in [7], 0.48 µg/mL (≈ 1.07 µM) in [8], 0.975 µg/mL (≈ 2.17 µM) in assay [9] and 1.95 µg/mL (≈ 4.34 µM) in assay [10].
Regarding `CCCCCCCCCCCCCCN1CCOCC1` [Compound 10, 4-Tetradecyl Morpholine], the MIC in [1], in [2], in [3], in [4], in [5] and in assay [6] was above 31.3 µg/mL each time. The MIC in assay [7] is above 31.3 µg/mL; in assay [8], above 31.3 µg/mL; in assay [9] it was above 31.3 µg/mL; in [10], above 31.3 µg/mL; in assay [11] it was at least 31.3 µg/mL.

The MIC is the smallest concentration in the dilution series that meets the test's criterion for growth inhibition.
